# In patent US20250188162A1, “INHIBITOR OF INTERLEUKIN-1 RECEPTOR TYPE 1 FOR USE IN THE TREATMENT OF CANCER” (Buzzard Pharmaceuticals AB, priority 2022, published 2025):
# Key:
# [1] = system: non-small cell lung cancer (NSCLC); conditions: second/third-line with docetaxel, irrespective of histologic subtype and driver mutation; cited from earlier work
# incident lung cancer = conditions: exploratory analysis of CANTOS; cited from earlier work
# NF-κB [2] = experiment: NF-κB ligand screen in pNGL-expressing RAW264.7 macrophages; format: cell-based, murine; conditions: recombinant VCAN 1 nM, compared with LPS 1 μg/mL
# Description: (§1) FIG. 4. Tumor-secreted versican drives macrophage IKKβ, metastasis, and is a cancer biomarker. (A-E) Kras-mutant and wild-type cancer cell RNA and supernatants were subjected to microarray and LC-MSMS analyses, respectively. Shown are experimental design (A), top-20 over-represented transcripts (B) and secretory proteins (C), and Vcan/VCAN mRNA/protein expression (D, E). n=2-3/group; P, probability, two-way ANOVA; Bold letters, false discovery rate (FDR) q<0.05 compared with Kras-wild-type cells, two-stage linear step-up procedure of Benjamini, Hochberg, and Yekutieli. (F, G) Representative bioluminescent images (F) and data summary (G) from pNGL RAW264.7 cells exposed to lipopolysaccharide (LPS; 1 μg/mL) or recombinant proteins (1-2 nM). n=5/group; P, probability, two-way ANOVA; ****, P<0.0001 compared with other groups, Bonferroni post-tests. (H) Immunoblots of mouse BMDM exposed to VCAN. n=5/group. (I-M) LLC cells stably expressing control (shC) and anti-Vcan (shVcan) shRNA were validated and injected intrapleurally into NGL mice. […]
# Mice were imaged for NF-κB reporter bioluminescent signal daily starting at day 10 post-tumor cell injection until sacrifice. […] Data were analyzed using Living Image v.4.2 (Perkin-Elmer, Waltham, MA) as described previously (9, 10, 15, 15, 22, 29, 39). […]
# IKKβ = experiment: immunoblots of mouse BMDM exposed to VCAN; format: cell-based; conditions: primary murine BMDM, recombinant human versican 1 nM
# Description: as §1, with “mice. Shown are immunoblots (I), Vcan mRNA expression (J), and data summaries (K, L) and representative photographic and bioluminescent images (M) taken 14 days post-tumor cells. (I, J) n=5/group; (K-M) n=16/group; P, probability, unpaired Student's t-test.” for “mice.”
# NF-κB [3] = experiment: NF-κB reporter response of pNGL RAW264.7 macrophages to tumor-conditioned media with bortezomib pre-treatment; format: cell-based, murine; conditions: pre-treatment 1 μg/mL (3 μM) for 1 hour
# Protocol: FIG. 3. Tumor-secreted factors drive IKKβ activation, differentiation, and IL-1β secretion in macrophages. (A) Color-coded cancer cells with Kras mutation status. (B-E) Bioluminescent images with pseudocolor scale (B, E), immunoblots (C), and data summaries (D, E) from exposure of RAW264.7 macrophages stably expressing pNGL (B-D) and murine bone marrow derived macrophages (BMDM) obtained from NGL mice after one-week 100 ng/ml M-CSF exposure (E) to cell-free tumor-conditioned media or DMEM (white boxes) with or without bortezomib pre-treatment (1 μg/mL˜3 µM for 1 hour). (D, E) n=5/group; P, probability, one or two-way ANOVA; **** and ####, P<0.0001 compared with other groups or saline-treated cells, respectively, Bonferroni post-tests. (F) Flow cytometry-assessed differentiation marker expression of murine bone marrow cells before (day 0) and after (day 7) one-week M-CSF exposure. (G) Microarray strategy and top-five differentially expressed genes (ΔGE) of murine BMDM compared with cancer cells (ΔGE1) and of tumor-conditioned BMDM compared with naïve BMDM (ΔGE2). n=5/group; P, probability, one-way ANOVA. (H) Bioluminescent images and data summary of NGL, NGL; Tnf−/−, and NGL;Il1b−/− mice 14 days post-pleural injection of LLC cells. n=13/group; P, probability, one-way ANOVA; ** and ***, P<0.01 and P<0.001, respectively, compared with NGL mice, Bonferroni post-tests. […]
molecule,measurement,setting,value
canakinumab: anti-IL-1β neutralizing monoclonal antibody,trial outcome,[1],negative
same,effect against incident lung cancer,incident lung cancer,strong protective effects against incident lung cancer
"VCAN: recombinant human active versican, TLR2 ligand glycoprotein",macrophage NF-κB-driven transcription,NF-κB [2],potently activates macrophage NF-κB-driven transcription to the same degree as the TLR4 ligand lipopolysaccharide (LPS)
same,IKKβ induction,IKKβ,induced IKKβ in primary murine BMDM
CC(C)C[C@H](NC(=O)[C@H](Cc1ccccc1)NC(=O)c1cnccn1)B(O)O [bortezomib],NF-κB response to KrasMUT tumor-conditioned media,NF-κB [3],attenuated
